# Source: patent US20200360391A1, “Medicinal Composition for Treating Intractable Heart Disease” (Osaka University, priority 2016, published 2020)
# Read-outs that look alike come from different tables or passages of the source.
# Assays:
# [1] = tested on: mouse model of pulmonary embolism; details: oral pre-administration, cited from earlier work
# [2] = tested on: rat coronary artery complete ischemia model; assay: Model of ischemia (MI) by rat coronary artery complete ligation (Tests 1 and 2): echocardiography, body weight; details: for Action on left ventricular systolic function: MI Test 1, 28-day repeated oral administration b.i.d., NOAEL-based doses; for Body weight / % FS: value of change compared with the value on Day 1 / EF: value of change compared with the value on Day 1: MI Test 1, NOAEL doses, mean ± S.D.
# rats [3] = assay: Repeated oral administration toxicity study in rats (dose-setting basis); details: mg/kg twice per day, oral preparation
# From the text: The dose-setting basis for the doses of the test substances used in pharmacological tests is as described below.
# rats [4] = details: cited from earlier work; for No-observed-adverse-effect level: rats
# [5] = cited from earlier work; for Cases with side effects (including laboratory test value abnormality): share of cases evaluated for safety
# [6] = tested on: spontaneous dilated cardiomyopathy (J2N-k) hamster model; assay: Spontaneous dilated cardiomyopathy (J2N-k) hamster model, 8-week administration from 20 weeks of age (Tests 1-3): echocardiography, body weight; details: for Cardiac function (EF, FS %) actual measured value and/or amount of change compared with control, 8 W value / Cardiac function (EF, FS %) actual measured value or change rate compared with control, 4 W value / Cardiac function improvement effect: Test 3, clinical dose; for Cardiac function improvement effect: summary; for Minimal effective dose (screening 2): mg/kg twice per day, oral preparation
# Procedure: The doses of pharmaceutical products were determined based on the no-observed-adverse-effect levels in a long-term toxicity study using rats. δ-Glycan-deficient spontaneous dilated cardiomyopathy (J2N-k) male hamsters (Japan SLC, Inc.) were delivered at 18 weeks of age. After a 2-week quarantine/acclimation, echocardiography was performed.
# Each of the pharmaceutical products (A to K and O) was individually administered twice daily (at an interval of 8 hours or more) by oral gavage, and echocardiography was performed after 4 and 8 weeks (before dissection). Differences from the value before the start of administration (at the time of grouping) (amount of change: Δ) in each group were examined, and the cardiac function (EF value, FS %, etc.) was compared with that in the vehicle group (Group 1). Moreover, the heart was removed […] after the start of administration, and electron microscopy and RNA protein measurement were performed. Specimens for immunopathology were also collected and evaluated.
# Each pharmaceutical product was individually suspended in 0.5% CMC-Na (sodium carboxymethylcellulose; Wako Pure Chemical Industries, Ltd.) before use, and administered. […] To Group 1 (control), 0.5% CNC-Na (vehicle) was administered.
# Each pharmaceutical product was individually suspended in 0.5% CMC-Na (sodium carboxymethylcellulose; Wako Pure Chemical Industries, Ltd.) before use, and administered. Test substance G was suspended in distilled water before use, and administered.
# Reason the doses were set (assuming that the adult body weight was 60 kg, the same amounts as the maximum clinical doses were set) • 1) The clinical dose of C (ozagrel; OZ) was 200 mg twice per day. The dose was thus set to 3.3 mg/kg twice per day. • 2) The clinical dose of D (cilostazol; CS) was 100 mg twice per day. The dose was thus set to 1.7 mg/kg twice per day. • 3) The clinical dose of E (pirfenidone; PF) was 600 mg three times per day, i.e., 1800 mg/day in total. The dose was thus set to 15 mg/kg twice per day. • 4) The clinical dose of G (nintedanib sulfonate; OB) was 150 mg twice per day. The dose was thus set to 2.5 mg/kg twice per day. • 5) The clinical dose of P (carvedilol; CV) was 10 mg twice per day. The dose was thus set to 0.17 mg/kg twice per day. • 6) Preparation 2 (PLGA⋅MS preparation of camostat; B⋅MS): the clinical dose of active substance camostat was 200 mg three times per day, i.e., 600 mg/day in total; thus, intermittent subcutaneous administration at a daily dose of 10 mg/kg once every 4 weeks, twice in total was set. The dose was 1/28 of the total oral dose amount.
# The dose volume in oral administration was 5 mL/kg (the amount of liquid to be administered to each animal was calculated based on the most recent body weight), and administered by oral gavage using a polypropylene disposable syringe and a rat stomach tube.
# The administration period of each pharmaceutical product was 8 weeks.
# [7] = tested on: spontaneous dilated cardiomyopathy J2N-k baby hamsters; assay: J2N-k baby hamsters (Test 4): administration alone or in combination, echocardiography, body weight; type: in vivo, hamster; details: for % FS / EF (%) / value of change in E.F. compared with E.F. at 0 W / value of change in F.S. compared with F.S. at 0 W: Test 4, dose O 0.17, C 3.3, E 15, orally twice daily, mean ± S.D.
# Procedure: δ-Glycan-deficient spontaneous dilated cardiomyopathy (J2N-k) male hamsters (Japan SLC, Inc.) were delivered at 4 weeks of age. After a 1-week quarantine/acclimation, echocardiography was performed. The hamsters were grouped by stratified random assignment based on the EF values and the body weights so that each administration group was equalized.
# Each test substance was individually administered twice daily (at an interval of 8 hours or more) by oral gavage, and echocardiography was performed 4 and 8 weeks after the start of administration (before dissection). Differences from the value before the start of administration (at the time of grouping) (amount of change: A) in each group were examined, and the cardiac function (EF value, FS %, etc.) was compared with that in the vehicle group (Group 1).
# The doses were set according to the dose-setting basis in Test 3, and similarly orally administered twice daily. Effects of administration of combinations of two or three of carvedilol, which is a β-blocker widely used clinically, and ozagrel and/or pirfenidone were examined.
# [8] = tested on: BLM-induced mouse pulmonary fibrosis model; details: BLM-induced mouse pulmonary fibrosis model; cited from earlier work
# [9] = Test 1, p.o. b.i.d., NOAEL-based dose
structure (smiles),measurement,setting,value
"O=C1CCc2cc(OCCCCc3nnnn3C3CCCCC3)ccc2N1 [Compound D, Cilostazol]",Dose significantly inhibiting pulmonary embolus death,[1]; ADP-induced model,30 mg/kg
same,Dose significantly inhibiting pulmonary embolus death,[1]; collagen-induced model,10 mg/kg
same,Action on left ventricular systolic function,[2],suppression action on the deterioration of left ventricular systolic function
same,Cardiac function test (% FS): actual measured EF value compared with control,"[2]; MI Test 1, Day 7",significantly higher
same,Cardiac function test (% FS): amount of change in the EF value compared with control,"[2]; MI Test 1, Day 7",not significantly higher
same,EF actual measured value compared with control,"[2]; MI Test 1, Day 7",significantly higher
same,EF amount of change compared with control,"[2]; MI Test 1, Day 7",not significantly higher
same,Cardiac function test (% FS): amount of change compared with control,"[2]; MI Test 1, Day 29",significantly higher
same,Body weight,[2]; 1 Day (grouping),232.4 ± 4.9 g
same,% FS: value of change compared with the value on Day 1,[2]; 7 Day,-1%
same,EF: value of change compared with the value on Day 1,[2]; 7 Day,-1%
same,% FS: value of change compared with the value on Day 1,[2]; 14 Day,-2%
same,EF: value of change compared with the value on Day 1,[2]; 14 Day,-3%
same,% FS: value of change compared with the value on Day 1,[2]; 29 Day,-5%
same,EF: value of change compared with the value on Day 1,[2]; 29 Day,-9%
same,Maximum no-observed-adverse-effect level (screening 1),rats [3],30 mg/kg
same,No-observed-adverse-effect level,rats [4]; 13 weeks / 3 months,30 mg/kg
same,Diarrhea cases,"[5]; human, in vivo",0.3%
same,Dizziness,"[5]; human, in vivo",0.5%
same,Headache (headache/heavy-headedness) cases,"[5]; human, in vivo",3.4%
same,Nausea cases (cilostazol: nausea/vomiting),"[5]; human, in vivo",0.3%
same,Palpitations cases,"[5]; human, in vivo",0.7%
same,Cases with side effects (including laboratory test value abnormality),[5],6.3%
same,LVIDd 4 W,"[6]; Test 1, p.o. b.i.d.",7.1 mm
same,LVIDd 8 W,"[6]; Test 1, p.o. b.i.d.",7.5 mm
same,LVIDs 4 W,"[6]; Test 1, p.o. b.i.d.",5.9 mm
same,LVIDs 8 W,"[6]; Test 1, p.o. b.i.d.",6.3 mm
same,Body weight 1 W,[6]; [9],112.6 g
same,Body weight 2 W,[6]; [9],114.6 g
same,Body weight 3 W,[6]; [9],116.6 g
same,Body weight 4 W,[6]; [9],118.0 g
same,Body weight 5 W,[6]; [9],118.5 g
same,"Cardiac function (EF, FS %) actual measured value and/or amount of change compared with control, 8 W value",[6],significant cardiac function improvement effect
same,"Cardiac function (EF, FS %) actual measured value or change rate compared with control, 4 W value",[6],significant cardiac function improvement effect
same,Cardiac function improvement effect,[6],cardiac function improvement effect was observed
same,Minimal effective dose (screening 2),[6],1.7 mg/kg
"Cc1ccc(=O)n(-c2ccccc2)c1 [Compound E, Pirfenidone]",Action on left ventricular systolic function,[2],suppression action on the deterioration of left ventricular systolic function
same,Body weight,[2]; 1 Day (grouping),232.0 ± 3.9 g
same,% FS: value of change compared with the value on Day 1,[2]; 7 Day,0%
same,Body weight,[2]; 7 Day,236.7 ± 5.3 g
same,EF: value of change compared with the value on Day 1,[2]; 7 Day,-1%
same,% FS: value of change compared with the value on Day 1,[2]; 14 Day,-2%
same,Body weight,[2]; 14 Day,257.7 ± 10.1 g
same,EF: value of change compared with the value on Day 1,[2]; 14 Day,-4%
same,Body weight,[2]; 21 Day,272.4 ± 10.5 g
same,% FS: value of change compared with the value on Day 1,[2]; 29 Day,-4%
same,Body weight,[2]; 29 Day,287.5 ± 16.2 g
same,EF: value of change compared with the value on Day 1,[2]; 29 Day,-8%
same,Maximum no-observed-adverse-effect level (screening 1),rats [3],50 mg/kg
same,No-observed-adverse-effect level,rats [4]; 1 month,100 mg/kg
same,Dose at which toxic findings were observed,"rats [4]; repeated oral administration in rats, duration per compound",≥ 100 mg/kg
same,Body weight 0 W,"[7]; Test 4, at grouping",71.7 g
same,% FS,[7]; 0 W (start of administration),39.0 ± 3.0%
same,EF (%),[7]; 0 W (start of administration),77.1 ± 3.4%
same,% FS,[7]; 4 W,34.1 ± 1.9%
same,EF (%),[7]; 4 W,71.3 ± 2.4%
same,value of change in E.F. compared with E.F. at 0 W,[7]; 4 W,<−5.8 ± 1.9> %
same,value of change in F.S. compared with F.S. at 0 W,[7]; 4 W,<−4.8 ± 1.7> %
same,% FS,[7]; 8 W,29.7 ± 1.8%
same,EF (%),[7]; 8 W,65.2 ± 2.6%
same,value of change in E.F. compared with E.F. at 0 W,[7]; 8 W,<−11.9 ± 2.8> %
same,value of change in F.S. compared with F.S. at 0 W,[7]; 8 W,<−9.2 ± 2.4> %
same,Abdominal / stomach / gastric discomfort cases,"[5]; human, in vivo",14.0%
same,Abnormal fluctuation in laboratory test values,"[5]; human, in vivo",45.3%
same,Anorexia cases,"[5]; human, in vivo",23.0%
same,Light-hypersensitivity cases,"[5]; human, in vivo",51.7%
same,Nausea cases (cilostazol: nausea/vomiting),"[5]; human, in vivo",12.1%
same,γ-GTP elevation cases,"[5]; human, in vivo",20.0%
same,Cases with side effects (including laboratory test value abnormality),[5],87.9%
same,Body weight 0 W,"[6]; Test 1, at grouping",116.1 g
same,LVIDd 4 W,"[6]; Test 1, p.o. b.i.d.",6.9 mm
same,LVIDd 8 W,"[6]; Test 1, p.o. b.i.d.",7.3 mm
same,LVIDs 4 W,"[6]; Test 1, p.o. b.i.d.",5.7 mm
same,LVIDs 8 W,"[6]; Test 1, p.o. b.i.d.",6.1 mm
same,Body weight 1 W,[6]; [9],116.3 g
same,Body weight 2 W,[6]; [9],118.3 g
same,Body weight 3 W,[6]; [9],119.5 g
same,Body weight 4 W,[6]; [9],121.4 g
same,LVIDs 8 W,"[6]; Test 1, p.o. b.i.d., listed as pirfenidone",significantly lower
same,"Cardiac function (EF, FS %) actual measured value and/or amount of change compared with control, 8 W value",[6],significant cardiac function improvement effect
same,"Cardiac function (EF, FS %) actual measured value or change rate compared with control, 4 W value",[6],significant cardiac function improvement effect
same,Cardiac function improvement effect,[6],cardiac function improvement effect was observed
same,Minimal effective dose (screening 2),[6],15 mg/kg
same,Minimal effective dose for antifibrosis,[8],30 mg/kg/day
